Results on twelve molecules are retold here after patent publication US8993258B2, “Fluorinated voltage sensitive dyes, preparation thereof, and optical methods of use” (The University of Connecticut, priority 2012, dated 2015).

A short description of data set [1]: One-photon absorption spectra of dyes (λmax abs, logε). It is filed as physicochemical. An excerpt: (§1) Similar methods were used to prepare additional dyes.
The nature of data set [2]: Photobleaching rate under white light from a xenon lamp. Conditions: single exponential decay fit of absorbance. It is filed as physicochemical. In short, it runs like this: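 Photostability was scored as a photobleaching rate, expressed relative to the unsubstituted parent dye. Dyes were irradiated with white light from a xenon lamp while absorbance was monitored. The rate was derived by fitting a single exponential decay to the absorbance over time.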

Data set [3] can be described thus: Voltage sensitivity: fluorescence change for a 100 millivolt step in membrane potential.
A short description of data set [4]: Fluorescence emission spectra and fluorescence quantum yield (FQY) of dyes. Format: physicochemical.
Excerpt: as §1

`CCCCN(CCCC)c1ccc2cc(/C=C(\F)c3cc[n+](CCC[N+](CC)(CC)CC)cc3F)ccc2c1` [PY4160]: the results for the logε in data set [1] (Ethanol), in data set [1] (Lipid vesicles) and in data set [1] (PBS buffer) were 4.6, 4.5 and 4.4, respectively. Moreover, the λmax abs came to 558 nm in data set [1] (Ethanol), 500 nm in data set [1] (Lipid vesicles) and 513 nm in data set [1] (PBS buffer). Moreover, the “Photobleaching rate (Relative to unsubstituted dye)” value in data set [2] is reported as 0.66. Besides, the “Voltage sensitivity ΔF/F per 100 mV” value in data set [3] (Ex/Em 602/>695 nm) was 10% 602/ >695. The results for the FQY in data set [4] (Ethanol), in data set [4] (Lipid vesicles) and in data set [4] (PBS buffer) were 0.003, 0.21 and “— (FQY < 0.001)”, respectively. The λmax em in data set [4] (Ethanol) stood at 710 nm; in data set [4] (Lipid vesicles), 660 nm.

For `CCCCN(CCCC)c1ccc2cc(/C=C(\F)c3cc[n+](CCC[N+](CC)(CC)CC)cc3F)ccc2c1F` [PY4158], the logε in data set [1] (Ethanol) came out at 4.3; in data set [1] (Lipid vesicles) it was 4.2; in data set [1] (PBS buffer), 4.0. The λmax abs in data set [1] (Ethanol) stood at 510 nm; in data set [1] (Lipid vesicles) it was 470 nm; in data set [1] (PBS buffer), 408 nm. In addition, the “Photobleaching rate (Relative to unsubstituted dye)” value in data set [2] is 0.89. The “Voltage sensitivity ΔF/F per 100 mV” value in data set [3] (Ex/Em 580/>695 nm) worked out at 7% 580/ >695. The FQY in data set [4] (Ethanol) is recorded as 0.003; in data set [4] (Lipid vesicles), 0.23; in data set [4] (PBS buffer) it was “— (FQY < 0.001)”. Also, the λmax em is given as 845 nm in data set [4] (Ethanol) and 651 nm in data set [4] (Lipid vesicles).

For `CCCCN(CCCC)c1ccc2cc(/C=C(\F)c3cc[n+](CCC[N+](CC)(CC)CC)cc3)ccc2c1` [PY3006], the figures for the logε in data set [1] (Ethanol), in data set [1] (Lipid vesicles) and in data set [1] (PBS buffer) were 4.5, 4.4 and 4.2, respectively. Moreover, the λmax abs in data set [1] (Ethanol) is 539 nm; in data set [1] (Lipid vesicles), 488 nm; in data set [1] (PBS buffer) it was 493 nm. Besides, in data set [2], the “Photobleaching rate (Relative to unsubstituted dye)” value amounted to 0.63. In addition, the “Voltage sensitivity ΔF/F per 100 mV” value in data set [3] (Ex/Em 578/>695 nm) is 12% 578/ >695. Further, the FQY is given as 0.001 in data set [4] (Ethanol), 0.16 in data set [4] (Lipid vesicles) and “— (FQY < 0.001)” in data set [4] (PBS buffer). Further, the values for the λmax em in data set [4] (Ethanol) and in data set [4] (Lipid vesicles) were 720 nm and 636 nm, respectively.

As for `CCCCN(CCCC)c1ccc2cc(/C=C(\F)c3cc[n+](CCC[N+](CC)(CC)CC)cc3)ccc2c1C(F)(F)F` [PY4125], the values for the logε in data set [1] (Ethanol), in data set [1] (Lipid vesicles) and in data set [1] (PBS buffer) were 4.4, 4.4 and 4.2, respectively. The λmax abs in data set [1] (Ethanol) amounted to 453 nm; in data set [1] (Lipid vesicles), 422 nm; in data set [1] (PBS buffer), 395 nm. Besides, the “Photobleaching rate (Relative to unsubstituted dye)” value in data set [2] was 1.35. The “Voltage sensitivity ΔF/F per 100 mV” value in data set [3] (Ex/Em 510/>695 nm) is recorded as 5% 510/ >695. Also, the values for the FQY in data set [4] (Ethanol), in data set [4] (Lipid vesicles) and in data set [4] (PBS buffer) were 0.006, 0.30 and 0.004, respectively. Further, the λmax em in data set [4] (Ethanol) turned out to be 694 nm; in data set [4] (Lipid vesicles), 590 nm; in data set [4] (PBS buffer) it was 624 nm.

Turning to `CCCCN(CCCC)c1ccc2cc(/C=C/c3c(F)c[n+](CCC[N+](CC)(CC)CC)cc3F)ccc2c1` [PY3184], the logε in data set [1] (Ethanol) is given as 4.6; in data set [1] (Lipid vesicles), 4.3; in data set [1] (PBS buffer), 4.2. For the same molecule, the results for the λmax abs in data set [1] (Ethanol), in data set [1] (Lipid vesicles) and in data set [1] (PBS buffer) were 569 nm, 511 nm and 530 nm, respectively. Besides, the “Photobleaching rate (Relative to unsubstituted dye)” value in data set [2] is 1.56. Further, in data set [3] (Ex/Em 610/>695 nm), the “Voltage sensitivity ΔF/F per 100 mV” value worked out at 11% 610/ >695. The FQY is recorded as 0.004 in data set [4] (Ethanol), 0.18 in data set [4] (Lipid vesicles) and “— (FQY < 0.001)” in data set [4] (PBS buffer). Also, the λmax em in data set [4] (Ethanol) is given as 658 nm; in data set [4] (Lipid vesicles), 646 nm.

For `CCCCN(CCCC)c1ccc2cc(/C=C/c3cc[n+](CCC[N+](CC)(CC)CC)cc3F)ccc2c1` [PY3128], the values for the logε in data set [1] (Ethanol), in data set [1] (Lipid vesicles) and in data set [1] (PBS buffer) were 4.4, 4.3 and 4.2, respectively. The results for the λmax abs in data set [1] (Ethanol), in data set [1] (Lipid vesicles) and in data set [1] (PBS buffer) were 545 nm, 495 nm and 506 nm, respectively. In addition, in data set [2], the “Photobleaching rate (Relative to unsubstituted dye)” value is reported as 0.63. For the same molecule, the “Voltage sensitivity ΔF/F per 100 mV” value in data set [3] (Ex/Em 590/>695 nm) was 6% 590/ >695. Also, the FQY was 0.002 in data set [4] (Ethanol), 0.26 in data set [4] (Lipid vesicles) and “— (FQY < 0.001)” in data set [4] (PBS buffer). Further, the values for the λmax em in data set [4] (Ethanol) and in data set [4] (Lipid vesicles) were 720 nm and 632 nm, respectively.

For the molecule `CCCCN(CCCC)c1ccc2cc(/C=C/c3c(F)c[n+](CCC[N+](CC)(CC)CC)c4ccccc34)ccc2c1` [PY3304], the logε is reported as 4.4 in data set [1] (Ethanol), 4.2 in data set [1] (Lipid vesicles) and 4.0 in data set [1] (PBS buffer). The λmax abs in data set [1] (Ethanol) came out at 617 nm; in data set [1] (Lipid vesicles) it was 547 nm; in data set [1] (PBS buffer) it was 565 nm. The “Photobleaching rate (Relative to unsubstituted dye)” value in data set [2] is 5.26. The “Voltage sensitivity ΔF/F per 100 mV” value in data set [3] (Ex/Em 645/>745 nm) was found to be 12% 645/ >745. Also, the FQY is given as 0.001 in data set [4] (Ethanol), 0.03 in data set [4] (Lipid vesicles) and “— (FQY < 0.001)” in data set [4] (PBS buffer). Also, the λmax em in data set [4] (Ethanol) is 825 nm; in data set [4] (Lipid vesicles), 686 nm.

Turning to `CCCCN(CCCC)c1ccc2cc(/C=C/c3cc[n+](CCC[N+](CC)(CC)CC)cc3)ccc2c1F` [PY3174], the logε stood at 4.4 in data set [1] (Ethanol), 4.3 in data set [1] (Lipid vesicles) and 4.2 in data set [1] (PBS buffer). The λmax abs in data set [1] (Ethanol) was 481 nm; in data set [1] (Lipid vesicles) it was 444 nm; in data set [1] (PBS buffer) it was 401 nm. Besides, the “Photobleaching rate (Relative to unsubstituted dye)” value in data set [2] is 0.83. For the same molecule, in data set [3] (Ex/Em 545/>695 nm), the “Voltage sensitivity ΔF/F per 100 mV” value is 6% 545/ >695. Also, the FQY is 0.007 in data set [4] (Ethanol), 0.25 in data set [4] (Lipid vesicles) and 0.002 in data set [4] (PBS buffer). Also, the figures for the λmax em in data set [4] (Ethanol), in data set [4] (Lipid vesicles) and in data set [4] (PBS buffer) were 704 nm, 610 nm and 666 nm, respectively.

Take `CCCCN(CCCC)c1ccc2cc(/C=C/c3cc[n+](CCC[N+](CC)(CC)CC)cc3)ccc2c1C(F)(F)F` [PY4093]: the logε in data set [1] (Ethanol) was 4.6; in data set [1] (Lipid vesicles), 4.5; in data set [1] (PBS buffer) it was 4.3. In addition, the λmax abs in data set [1] (Ethanol) was 449 nm; in data set [1] (Lipid vesicles) it was 418 nm; in data set [1] (PBS buffer), 430 nm. Besides, the “Photobleaching rate (Relative to unsubstituted dye)” value in data set [2] amounted to 0.95. Also, the “Voltage sensitivity ΔF/F per 100 mV” value in data set [3] (Ex/Em 530/>645 nm) turned out to be 8% 530/ >645. The FQY in data set [4] (Ethanol) was determined as 0.046; in data set [4] (Lipid vesicles), 0.35; in data set [4] (PBS buffer), 0.005. Besides, the λmax em is 687 nm in data set [4] (Ethanol), 597 nm in data set [4] (Lipid vesicles) and 715 nm in data set [4] (PBS buffer).

With `CCCCN(CCCC)c1ccc2cc(/C=C(\F)c3cc[n+](CCC[N+](CC)(CC)CC)cc3)ccc2c1F` [PY4038], the logε in data set [1] (Ethanol) turned out to be 4.4; in data set [1] (Lipid vesicles), 4.3; in data set [1] (PBS buffer) it was 4.0. The figures for the λmax abs in data set [1] (Ethanol), in data set [1] (Lipid vesicles) and in data set [1] (PBS buffer) were 497 nm, 464 nm and 409 nm, respectively. Further, the “Photobleaching rate (Relative to unsubstituted dye)” value in data set [2] is reported as 0.62. The “Voltage sensitivity ΔF/F per 100 mV” value in data set [3] (Ex/Em 578/>695 nm) amounted to 7% 578/ >695. Besides, the FQY is 0.001 in data set [4] (Ethanol), 0.26 in data set [4] (Lipid vesicles) and “— (FQY < 0.001)” in data set [4] (PBS buffer). Moreover, the λmax em was 760 nm in data set [4] (Ethanol) and 643 nm in data set [4] (Lipid vesicles).

For `CCCCN(CCCC)c1ccc2cc(/C=C/c3cc[n+](CCC[N+](CC)(CC)CC)cc3F)ccc2c1F` [PY3179], the logε was 4.3 in data set [1] (Ethanol), 4.3 in data set [1] (Lipid vesicles) and 4.1 in data set [1] (PBS buffer). The λmax abs is recorded as 509 nm in data set [1] (Ethanol), 465 nm in data set [1] (Lipid vesicles) and 414 nm in data set [1] (PBS buffer). The “Photobleaching rate (Relative to unsubstituted dye)” value in data set [2] came out at 0.91. In data set [3] (Ex/Em 572/>695 nm), the “Voltage sensitivity ΔF/F per 100 mV” value stood at 18% 572/ >695. Moreover, the FQY was 0.003 in data set [4] (Ethanol), 0.22 in data set [4] (Lipid vesicles) and “— (FQY < 0.001)” in data set [4] (PBS buffer). For the same molecule, the λmax em in data set [4] (Ethanol) turned out to be 720 nm; in data set [4] (Lipid vesicles), 632 nm.

In the case of `CCCCN(CCCC)c1ccc2cc(/C=C/c3c(F)c[n+](CCC[N+](CC)(CC)CC)c4ccccc34)ccc2c1` [PY4221], the logε is on record as 4.4 in data set [1] (Ethanol), 4.2 in data set [1] (Lipid vesicles) and 4.1 in data set [1] (PBS buffer). The λmax abs in data set [1] (Ethanol) worked out at 627 nm; in data set [1] (Lipid vesicles), 553 nm; in data set [1] (PBS buffer) it was 537 nm. Besides, in data set [3] (Ex/Em 670/>780 nm), the “Voltage sensitivity ΔF/F per 100 mV” value amounted to 6% 670/ >780. The FQY entry in data set [4] (Ethanol) is “— (FQY < 0.001)”; in data set [4] (Lipid vesicles), 0.07; in data set [4] (PBS buffer), “— (FQY < 0.001)”. Moreover, the λmax em in data set [4] (Lipid vesicles) was determined as 743 nm.
